Experimental data reported in PubChem BioAssay (NCI).
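48-hour exposure; five concentrations; linearly interpolated endpoints. Abbreviation: GI50, concentration required for 50% inhibition of growth. Definition used: TGI = concentration required for complete inhibition of growth.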

What was measured:
Assay in all cases: DTP human tumour cell line panel, 48 h
NCI-H23 lung = test system: NCI-H23 lung
NCI-H460 lung = test system: NCI-H460 lung
NCI-H522 lung = test system: NCI-H522 lung
NCI/ADR-RES ovarian = test system: NCI/ADR-RES ovarian
OVCAR-3 ovarian = test system: OVCAR-3 ovarian
OVCAR-4 ovarian = test system: OVCAR-4 ovarian
OVCAR-5 ovarian = test system: OVCAR-5 ovarian
OVCAR-8 ovarian = test system: OVCAR-8 ovarian
PC-3 prostate = test system: PC-3 prostate
RPMI-8226 leukemia = test system: RPMI-8226 leukemia
RXF 393 renal = test system: RXF 393 renal
SF-268 CNS = test system: SF-268 CNS
SF-295 CNS = test system: SF-295 CNS
SF-539 CNS = test system: SF-539 CNS
SK-MEL-2 melanoma = test system: SK-MEL-2 melanoma
SK-MEL-28 melanoma = test system: SK-MEL-28 melanoma
SK-MEL-5 melanoma = test system: SK-MEL-5 melanoma
SK-OV-3 ovarian = test system: SK-OV-3 ovarian
SN12C renal = test system: SN12C renal
SNB-19 CNS = test system: SNB-19 CNS
SNB-75 CNS = test system: SNB-75 CNS
SR leukemia = test system: SR leukemia
SW-620 colon = test system: SW-620 colon
T-47D breast = test system: T-47D breast
TK-10 renal = test system: TK-10 renal
U251 CNS = test system: U251 CNS
UACC-257 melanoma = test system: UACC-257 melanoma
UACC-62 melanoma = test system: UACC-62 melanoma
UO-31 renal = test system: UO-31 renal

CC1(C)CCC(c2ccc(Cl)cc2)=C(CN2CCN(c3ccc(C(=O)NS(=O)(=O)c4ccc(N[C@H](CCN5CCOCC5)CSc5ccccc5)c(S(=O)(=O)C(F)(F)F)c4)cc3)CC2)C1
TGI (NCI-H23 lung): 3960 nM
GI50 (NCI-H460 lung): 1870 nM
TGI (NCI-H460 lung): 3710 nM
GI50 (NCI-H522 lung): 1890 nM
TGI (NCI-H522 lung): 5030 nM
GI50 (NCI/ADR-RES ovarian): 3200 nM
TGI (NCI/ADR-RES ovarian): 11700 nM
GI50 (OVCAR-3 ovarian): 1620 nM
TGI (OVCAR-3 ovarian): 3000 nM
GI50 (OVCAR-4 ovarian): 1220 nM
TGI (OVCAR-4 ovarian): 2520 nM
GI50 (OVCAR-5 ovarian): 1850 nM
TGI (OVCAR-5 ovarian): 4050 nM
GI50 (OVCAR-8 ovarian): 2190 nM
TGI (OVCAR-8 ovarian): 5180 nM
GI50 (PC-3 prostate): 1680 nM
TGI (PC-3 prostate): 4500 nM
GI50 (RPMI-8226 leukemia): 342 nM
TGI (RPMI-8226 leukemia): 4330 nM
GI50 (RXF 393 renal): 322 nM
TGI (RXF 393 renal): 1940 nM
GI50 (SF-268 CNS): 2310 nM
TGI (SF-268 CNS): 5550 nM
GI50 (SF-295 CNS): 1520 nM
TGI (SF-295 CNS): 3200 nM
GI50 (SF-539 CNS): 2080 nM
TGI (SF-539 CNS): 4220 nM
GI50 (SK-MEL-2 melanoma): 1860 nM
TGI (SK-MEL-2 melanoma): 4350 nM
GI50 (SK-MEL-28 melanoma): 1740 nM
TGI (SK-MEL-28 melanoma): 3220 nM
GI50 (SK-MEL-5 melanoma): 1570 nM
TGI (SK-MEL-5 melanoma): 2930 nM
GI50 (SK-OV-3 ovarian): 1280 nM
TGI (SK-OV-3 ovarian): 2680 nM
GI50 (SN12C renal): 1530 nM
TGI (SN12C renal): 3330 nM
GI50 (SNB-19 CNS): 2680 nM
TGI (SNB-19 CNS): 9140 nM
GI50 (SNB-75 CNS): 2050 nM
TGI (SNB-75 CNS): 4160 nM
GI50 (SR leukemia): 2340 nM
TGI (SR leukemia): > 25900 nM
GI50 (SW-620 colon): 1790 nM
TGI (SW-620 colon): 3800 nM
GI50 (T-47D breast): 2050 nM
TGI (T-47D breast): 5250 nM
GI50 (TK-10 renal): 1280 nM
TGI (TK-10 renal): 2670 nM
GI50 (U251 CNS): 1900 nM
TGI (U251 CNS): 3430 nM
GI50 (UACC-257 melanoma): 1630 nM
TGI (UACC-257 melanoma): 3400 nM
GI50 (UACC-62 melanoma): 1430 nM
TGI (UACC-62 melanoma): 2920 nM
GI50 (UO-31 renal): 1740 nM
TGI (UO-31 renal): 3210 nM
